Laboratory results published in patent US8785608B2, “Crystalline heteroaromatic fluoroglycoside hydrates, pharmaceuticals comprising these compounds and their use” (Sanofi, priority 2009, dated 2014).

What was measured:
Type in all cases: physicochemical
[1] = Long term storage stability in glass vials (chemical stability); details: for Puirity (area %) / Total increase (area %): +40° C.
Excerpt: The following tables 2 and 3 show data for the storage stability of crystalline compound of formula I in comparison to amorphous material of formula II. Samples of the compounds of formula I and II were packed into glass vials. Chemical stability was monitored over a period up 28 days under different conditions as indicated at each table.

[2] = Water vapour sorption (DVS), hygroscopicity; details: 80% r.h. (25° C.)
Procedure: The water sorption experiments were performed with a SPS11-10μ (Projekt Messtechnik). Open aluminium pans were used and the measurements were performed at 25° C. The measured data was evaluated via the software Excel (Microsoft).

[3] = Humidity-resolved XRPD in humidity chamber (phase transitions); details: 25° C.
Procedure: The samples were subjected to a pre-defined humidity program lasting 48 hours in an SMS VGI-2000 chamber at a constant temperature of 25° C. XRPD patterns were collected continuously with a data collection time of between 6 and 11 min. (The amorphous sample was treated with the humidity-program reversed: first rising the humidity to 95%, then lowering it to 0% and rising to 95% again.).

[4] = open glass vials, 75% relative humidity, 7 d
[5] = open glass vials, 75% relative humidity, 14 d
[6] = open glass vials, 75% relative humidity, 28 d
[7] = open glass vials, 75% relative humidity, Initial

Puirity (area %) ([1]; closed glass vials, 7 d) | Total increase (area %) ([1]; closed glass vials, 7 d) | Puirity (area %) ([1]; closed glass vials, 14 d) | Total increase (area %) ([1]; closed glass vials, 14 d) | Puirity (area %) ([1]; closed glass vials, 28 d) | Total increase (area %) ([1]; closed glass vials, 28 d) | Puirity (area %) ([1]; closed glass vials, Initial) | Puirity (area %) [1, 4] | Total increase (area %) [1, 4] | Puirity (area %) [1, 5] | Total increase (area %) [1, 5] | Puirity (area %) [1, 6] | Total increase (area %) [1, 6] | Puirity (area %) [1, 7] | chemical stability during storage ([1]; 40° C. under dry conditions (closed vials) and 75% r.h) | hygroscopicity compared to the amorphous form [2] | relative humidity at which starting phase B transformed to phase C ([3]; humidity lowered) | relative humidity at which phase D transformed back into the starting phase ([3]; humidity raised) | relative humidity at which intermediate phase D formed ([3]; humidity raised again) | Structure (SMILES)
96.5 area % | 0.5 area % | 96.1 area % | 0.9 area % | 95.6 area % | 1.4 area % | 97.0 area % | 96.2 area % | 0.5 area % | 95.9 area % | 1.1 area % | 95.5 area % | 1.5 area % | 97.0 area % | – | – | – | – | – | CC(C)c1[nH]nc(O[C@@H]2O[C@H](CO)[C@@H](F)[C@H](O)[C@H]2O)c1Cc1ccc(CCCC(=O)NC(CO)(CO)CO)cc1 [Amorphous sample, 4-{4-[3-((2S,3R,4R,5S,6R)-5-Fluoro-3,4-dihydroxy-6-hydroxymethyl-tetrahydro-pyran-2-yloxy)-5-isopropyl-1H-pyrazol-4-ylmethyl]-phenyl}-N-(2-hydroxy-1,1-bis-hydroxymethyl-ethyl)-butyramide, reference compound]
97.2 area % | 0.3 area % | 97.1 area % | 0.4 area % | 97.0 area % | 0.5 area % | 97.5 area % | 97.3 area % | ≦0.2 area % | 97.3 area % | ≦0.2 area % | 97.3 area % | ≦0.2 area % | 97.3 area % | better chemical stability | less hygroscopic | about 2% | around 20 % rel. hum. | about 10% | CC(C)c1[nH]nc(O[C@@H]2O[C@H](CO)[C@@H](F)[C@H](O)[C@H]2O)c1Cc1ccc(CCCC(=O)NC(CO)(CO)CO)cc1 [Crystalline hydrate I]
